The text below walks through data of ChEMBL document CHEMBL1145603, “Evaluation of antiangiogenic activity of azumamides by the in vitro vascular organization model using mouse induced pluripotent stem (iPS) cells” (Bioorg Med Chem Lett, 2008).

The target in assay [1] is Histone deacetylase 1 (Homo sapiens, UniProt Q13547). The assay can be described thus: Inhibition of human HDAC1 expressed in 293T cells. The assay is classed as cell-based.
In assay [2] the target is Histone deacetylase 4 (Homo sapiens, UniProt P56524). The experiment in a line: Inhibition of human HDAC4 expressed in 293T cells. The assay is classed as cell-based.
In assay [3] the target is T1, Protein deacetylase HDAC6 (Homo sapiens, UniProt Q9UBN7).
T1 sequence (Q9UBN7 whole entry): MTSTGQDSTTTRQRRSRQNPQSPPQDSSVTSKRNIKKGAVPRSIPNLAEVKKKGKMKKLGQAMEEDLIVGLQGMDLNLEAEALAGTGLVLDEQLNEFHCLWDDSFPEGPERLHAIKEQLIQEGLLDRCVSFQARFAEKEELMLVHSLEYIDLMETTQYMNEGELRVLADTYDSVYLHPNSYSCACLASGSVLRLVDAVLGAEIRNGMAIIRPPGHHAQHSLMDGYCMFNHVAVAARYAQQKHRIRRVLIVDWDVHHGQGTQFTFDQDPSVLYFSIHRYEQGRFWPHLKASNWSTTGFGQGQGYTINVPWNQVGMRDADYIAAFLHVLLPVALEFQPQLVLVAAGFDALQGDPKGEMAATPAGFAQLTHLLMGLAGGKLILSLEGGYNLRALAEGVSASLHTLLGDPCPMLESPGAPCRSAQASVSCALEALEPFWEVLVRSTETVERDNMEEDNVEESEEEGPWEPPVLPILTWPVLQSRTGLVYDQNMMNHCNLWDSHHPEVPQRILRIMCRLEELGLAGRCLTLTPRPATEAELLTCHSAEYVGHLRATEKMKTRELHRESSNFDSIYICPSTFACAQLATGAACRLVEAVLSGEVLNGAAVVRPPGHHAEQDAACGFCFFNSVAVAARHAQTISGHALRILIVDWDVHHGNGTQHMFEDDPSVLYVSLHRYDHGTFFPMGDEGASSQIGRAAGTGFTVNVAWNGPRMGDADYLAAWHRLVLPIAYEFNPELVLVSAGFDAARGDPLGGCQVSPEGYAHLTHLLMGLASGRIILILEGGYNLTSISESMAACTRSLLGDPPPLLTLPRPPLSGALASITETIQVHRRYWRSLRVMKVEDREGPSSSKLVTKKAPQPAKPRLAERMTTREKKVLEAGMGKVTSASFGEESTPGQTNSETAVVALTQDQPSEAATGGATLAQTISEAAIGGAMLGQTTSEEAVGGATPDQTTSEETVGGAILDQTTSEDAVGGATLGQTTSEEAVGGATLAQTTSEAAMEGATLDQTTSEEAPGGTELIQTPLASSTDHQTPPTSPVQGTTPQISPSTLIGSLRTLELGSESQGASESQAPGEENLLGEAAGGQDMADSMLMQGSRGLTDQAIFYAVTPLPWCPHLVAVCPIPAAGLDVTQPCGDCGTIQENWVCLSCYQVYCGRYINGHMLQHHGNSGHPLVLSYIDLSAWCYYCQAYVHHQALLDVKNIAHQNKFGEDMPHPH
The experiment in a line: Inhibition of human HDAC6 expressed in 293T cells. The assay is classed as cell-based.

The subject of assay [4] is HeLa. The assay can be described thus: Induction of p21 expression in human HeLa cells after 24 hrs. The assay is classed as functional.
The species entered for assay [5] is Mus musculus. The assay can be described thus: Antiangiogenic activity in mouse induced pluripotent stem cells. The assay is classed as functional.

A value given as a limit tells only on which side of the number the result lay.

Sequence of Histone deacetylase 4 (P56524 whole entry): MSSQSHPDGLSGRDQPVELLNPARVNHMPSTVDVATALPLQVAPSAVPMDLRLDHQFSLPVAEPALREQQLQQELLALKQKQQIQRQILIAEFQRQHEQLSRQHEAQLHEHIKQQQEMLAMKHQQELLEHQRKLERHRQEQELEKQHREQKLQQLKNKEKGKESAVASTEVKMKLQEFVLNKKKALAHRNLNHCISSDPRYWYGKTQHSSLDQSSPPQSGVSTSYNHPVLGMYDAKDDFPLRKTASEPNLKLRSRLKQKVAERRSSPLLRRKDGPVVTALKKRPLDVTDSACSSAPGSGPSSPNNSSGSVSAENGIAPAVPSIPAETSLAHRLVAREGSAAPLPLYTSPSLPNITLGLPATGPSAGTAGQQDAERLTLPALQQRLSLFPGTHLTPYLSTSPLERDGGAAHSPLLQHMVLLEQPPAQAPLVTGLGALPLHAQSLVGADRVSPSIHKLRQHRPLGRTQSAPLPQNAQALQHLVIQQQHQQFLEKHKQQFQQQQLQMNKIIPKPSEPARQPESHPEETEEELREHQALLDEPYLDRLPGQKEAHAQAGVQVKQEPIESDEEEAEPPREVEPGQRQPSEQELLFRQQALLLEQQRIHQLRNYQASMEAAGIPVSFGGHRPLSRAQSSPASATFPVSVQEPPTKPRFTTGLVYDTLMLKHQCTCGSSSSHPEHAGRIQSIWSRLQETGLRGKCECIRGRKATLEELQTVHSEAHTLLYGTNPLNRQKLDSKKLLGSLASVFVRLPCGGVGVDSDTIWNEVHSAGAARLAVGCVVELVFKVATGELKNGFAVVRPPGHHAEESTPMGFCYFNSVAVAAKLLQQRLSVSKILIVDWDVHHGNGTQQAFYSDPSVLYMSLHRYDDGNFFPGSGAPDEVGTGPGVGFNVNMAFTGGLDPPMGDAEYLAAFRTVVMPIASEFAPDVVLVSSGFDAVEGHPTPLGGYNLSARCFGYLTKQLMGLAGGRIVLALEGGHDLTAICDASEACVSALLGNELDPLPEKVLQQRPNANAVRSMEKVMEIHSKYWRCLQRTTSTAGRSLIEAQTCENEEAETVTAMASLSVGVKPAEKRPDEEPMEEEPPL
Sequence of Histone deacetylase 1 (Q13547 whole entry): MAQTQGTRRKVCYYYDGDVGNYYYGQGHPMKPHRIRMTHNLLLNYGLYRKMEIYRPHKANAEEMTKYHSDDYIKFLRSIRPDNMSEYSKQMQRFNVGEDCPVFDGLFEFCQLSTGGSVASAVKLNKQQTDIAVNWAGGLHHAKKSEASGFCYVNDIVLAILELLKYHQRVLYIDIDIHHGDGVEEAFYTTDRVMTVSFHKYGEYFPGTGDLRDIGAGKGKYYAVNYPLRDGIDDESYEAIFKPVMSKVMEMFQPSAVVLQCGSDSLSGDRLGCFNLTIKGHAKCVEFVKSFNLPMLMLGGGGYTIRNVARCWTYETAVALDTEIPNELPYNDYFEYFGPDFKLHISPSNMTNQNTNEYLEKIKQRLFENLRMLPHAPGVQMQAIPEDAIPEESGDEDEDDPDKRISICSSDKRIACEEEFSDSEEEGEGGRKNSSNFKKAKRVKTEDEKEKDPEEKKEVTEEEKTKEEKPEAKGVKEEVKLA

Broadly, the IC50 is the concentration that inhibits the measured activity by half. Regarding `CC(C)[C@H]1NC(=O)[C@@H](C)[C@@H](C/C=C\CCC(N)=O)NC(=O)[C@@H](Cc2ccccc2)NC(=O)[C@@H](C)NC1=O` [AZUMAMIDE A], the half-inhibitory concentration (IC50) in assay [1], in assay [2] and in assay [3] was more than 50 µM in each case. Further, the EC1000 in assay [4] was more than 25 µM.
`CC(C)[C@H]1NC(=O)[C@@H](C)[C@@H](C/C=C\CCC(N)=O)NC(=O)[C@@H](Cc2ccc(O)cc2)NC(=O)[C@@H](C)NC1=O` [AZUMAMIDE B]: the IC50 in assay [1] was 1.83 µM; in assay [2], 3.66 µM; in assay [3], more than 50 µM. Besides, in assay [4], the EC1000 is more than 25 µM.
With `CC(C)[C@H]1NC(=O)[C@@H](C)[C@@H](C/C=C\CCC(=O)O)NC(=O)[C@@H](Cc2ccc(O)cc2)NC(=O)[C@@H](C)NC1=O` [AZUMAMIDE C], the half-inhibitory concentration (IC50) was 1.17 µM in assay [1], 3.16 µM in assay [2] and more than 50 µM in assay [3]. Further, in assay [4], the EC1000 is more than 25 µM.
For `C[C@@H]1C(=O)N[C@H](C)C(=O)N[C@H](C)C(=O)N[C@H](Cc2ccccc2)C(=O)N[C@@H]1C/C=C\CCC(N)=O` [AZUMAMIDE D] the same measures were more than 50 µM, more than 50 µM, more than 50 µM and more than 25 µM.
Consider `CC(C)[C@H]1NC(=O)[C@@H](C)[C@@H](C/C=C\CCC(=O)O)NC(=O)[C@@H](Cc2ccccc2)NC(=O)[C@@H](C)NC1=O` [AZUMAMIDE E], for which the IC50 in assay [2] was 2.28 µM; in assay [3], more than 50 µM. Further, in assay [4], the EC1000 amounted to 17 µM. Also, in assay [5], the Activity result is “Dose-dependent effect”.
Turning to `CC(/C=C/C(=O)NO)=C\[C@@H](C)C(=O)c1ccc(N(C)C)cc1` [TRICHOSTATIN], the EC1000 in assay [4] came to 0.0115 µM.
